Source: patent publication US20030134859A1 (SANKYO COMPANY, LIMITED, priority 2000, published 2003)
Like-named read-outs stand apart in the source and are kept apart here.

Key:
Type in all cases: cell-based
[1] = system: Mouse preadipocyte strain 3T3-L1; assay: Inhibition of differentiation as an indication of acetic acid uptake; settings: control (0.01% dimethylsulfoxide) = 100%; for activity at 0.1 µM: Mus musculus, read-out: Rate of Uptake (%) of [2-14C] acetic acid
Procedure, shortened: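 Confluent 3T3-L1 cells induced to differentiate for 4 days (insulin, IBMX, dexamethasone, 5% FBS) with test compound at 0.1 μM final or 0.01% DMSO, then 2 days in insulin maintenance medium, at 37 °C, 10% CO2. [2-14C]acetic acid uptake over 1 hr counted by scintillation; expressed as % of DMSO control.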

Rat white adipocytes = assay: Stimulation of differentiation of the adipocytes (Oil Red O); settings: 100 nM test compound, 5 days, Oil Red O ABS550, control = 100%, blank = 0%, Table 7; for activity at 0.1 µM: Rattus norvegicus, Adipocyte, 120 h, read-out: Rate of Differentiation (%)
Experimental: Rat white adipocytes contained in the white adipocyte culture kit, which was purchased from HOKUDO, were used. Mediums for proliferation and for differentiation-inducing, which were contained in the white adipocyte culture kit purchased from HOKUDO, were used.
Immediately after arrival of the purchased cells, all medium for transportation was discarded and replaced with 5 ml of proliferation medium (/25 cm^2-flask) and the cells were cultured for one day. Then, a cell suspension was prepared with proliferation medium so as to be 83,000 cells/mL, and the suspension was plated into a type I 96-well collagen-coated microplate (SUMITOMO BAKELITE CO., ltd.) so as to be 5,000 cells/well (60 μL/well). For the blank, the proliferation medium without the cells was plated into the well (blank well) of each plate.
Further, 1) in the group treated with the test compound, 3 μL/well of a solution in which the test compound (100 μM) was dissolved in DMSO solution and diluted with differentiation-inducing medium by 20 times (final concentration of the test compound: 100 nM, final concentration of DMSO: 0.1% (v/v)) were added to the well where the cells were plated. 2) In the control group, 3 μL/well of DMSO solution that was diluted with differentiation-inducing medium by 20 times (final concentration of DMSO: 0.1% (v/v)) were added to the well where the cells were plated. Further, 3) in the blank group, 3 μL/well of DMSO solution that was diluted with differentiation-inducing medium by 20 times (final concentration: 0.1% (v/v)) were added to the blank well.
After culturing for 5 days, all differentiation-inducing medium was discarded and replaced with 60 μL of 10% (v/v) of formaldehyde solution (for fixation) in each well and the cells were kept stationary for 20 min at room temperature. After this the fixative solution was discarded and replaced with 60 μL of 0.2% (v/v) Triton X (Sigma-Aldrich Japan K. K.) solution in each well and kept stationary for 5 min at the room temperature. Then all Triton X solution was discarded and replaced with 60 μL of 60% (v/v) isopropanol solution containing dissolved Oil Red 0 (Sigma-Aldrich Japan K. K.) so as to be 0.3%, which was adipose tissue staining solution, and the well was left stationary for 10 min at room temperature. After the adipose tissue staining solution was discarded, the well was washed twice with 60 μL of 60% (v/v) isopropanol solution. Then, 100 μL of the DMSO were added to each well and stirred for 5 min at room temperature. The absorbance was measured at 550 nm (ABS550) with a multi-plate reader (LabsSystems), and the stained amount by Oil Red 0 was determined. The measured level at ABS550 in the control group was defined as 100%, while the level at ABS550 in the blank group was defined as 0%. The differentiation rate (%) of the adipocytes treated with the test compound was calculated.

human PPAR γ 2 = biological target: T1, human PPAR γ 2 (Homo sapiens, UniProt P37231); assay: Inhibitory activity against PPAR γ transcription in the presence of agonist compound A, luciferase reporter; settings: in the presence of 10 nM compound A (agonist); MG63 cells transfected with pSG5-hPPARg and pGV-P2-PPRE; 24 hr
T1 construct: expressed in transfected cells; host or cells: human osteosarcoma MG63, transiently co-transfected with pSG5-hPPARg and the reporter pGV-P2-PPRE
T1 sequence (P37231 1-505): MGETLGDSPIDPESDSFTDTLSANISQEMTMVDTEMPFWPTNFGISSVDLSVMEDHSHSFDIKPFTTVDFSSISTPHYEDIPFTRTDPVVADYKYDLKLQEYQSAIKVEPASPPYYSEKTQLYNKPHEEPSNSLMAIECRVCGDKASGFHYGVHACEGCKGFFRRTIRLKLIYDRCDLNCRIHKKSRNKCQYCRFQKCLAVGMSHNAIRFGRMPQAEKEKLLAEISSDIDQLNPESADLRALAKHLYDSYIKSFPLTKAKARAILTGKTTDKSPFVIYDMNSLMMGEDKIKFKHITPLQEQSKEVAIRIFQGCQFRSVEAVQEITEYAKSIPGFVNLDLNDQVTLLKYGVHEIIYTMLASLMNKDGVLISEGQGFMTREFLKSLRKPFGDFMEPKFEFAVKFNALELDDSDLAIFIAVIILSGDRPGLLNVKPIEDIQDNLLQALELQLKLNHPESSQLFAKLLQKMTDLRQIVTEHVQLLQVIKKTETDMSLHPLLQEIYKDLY
Excerpt: The primers of the polymerase chain reaction (hereinafter “PCR”) were designed according to the gene sequence of human PPAR γ 2 (GenBANK accession No. D83233). […] For this, 2 kinds of polynucleotides shown in the sequence numbers 1 and 2 in the sequence table described below (hereinafter “S1” and “AS1”, respectively) were used as PCR primers.
In order to determine transcriptional activity via PPAR γ, 2 kinds of polynucleotides represented in sequence numbers 3 and 4 in the sequence table described below (hereinafter “S2” and “AS2”, respectively) were used for construction of the reporter plasmid having PPAR responsive element. The DNA fragment inserted was designed based on the gene sequence in the promoter region of rat acylCo-A oxidase (J. D. Tugwood, EMBO J., 11 (2), pp433-439 (1992)). For insertion of the DNA fragment into the reporter plasmid pGV-P2 (TOYO INK MFG CO., LTD), a NheI site and an XhoI site were added to the S2 and AS2, respectively.
Using cDNA library (Clontech) derived from human adipose tissue as a template, DNA oligomers S1 and AS1 that were synthesized in the procedure 1 as primers and Ex-Taq™ (TAKARA BIO INC.) as a thermostable DNA polymerase-PCR was carried out. […] Each cycle consisted of incubation at 94° C. for 1 min for denaturation of the template, then at 55° C. for 30 sec for annealing of DNA oligomers the PCR primer, and then at 72° C. for 30 sec for extension of the chain. The obtained DNA fragments with approximately 1500 base pairs were digested at the Bgl II sites and were inserted into BamHI sites of pSG5. Thus a human PPAR γ expression plasmid named pSG5-hPPAR g was obtained.
Vector pGV-P2 digestion products was prepared by digestion using the restriction enzymes, NheI and XhoI, and purified by 1.0% agarose-gel electrophoresis. The DNA oligomers, S2 and AS2 obtained in Procedure 2, were mixed together and were incubated in a hot bath at 94° C. for 1 min. After the annealing was partially broken, they were further incubated at 25° C. for 1 hr. Thus double-stranded DNA with annealing of S2 and AS2 was formed. Then, the terminus of the double-stranded DNA with annealing of S2 and AS2 was phosphorylated with DNA polynucleotide kinase (TOYOBO CO., LTD). After that, it was ligated to the pGV-P2 digestion products which were prepared previously using the NheI site and XhoI site. Thus the reporter plasmid pGV-P2-PPRE was obtained.
Using the plasmid obtained by the procedures 3 and 4, transformation of Escherichia coli HB-101 strain was carried out by conventional methods. HB-101 strain having the plasmid was incubated in L-broth medium (containing 10 g of trypton (Difco), 5 g of yeast extract (Difco), 5 g of sodium chloride in 1 L of aqueous solution) containing 100 μg/ml of ampicillin at 37° C. for 17 hrs. Then, each plasmid was purified by the alkaline-SDS method and employed for the gene transfection to mammalian cells. After mixing the pSG5-hPPARg, PGV-P2-PPRE and LipofectAMINE reagent (GIBCO BRL), the human osteosarcoma MG63 was transiently transfected. Then the cells were recovered. The recovered cells were plated on a 96-well plate so as to be 30,000 cells/well and cultured in a CO2 incubator (NAPCO) at 37° C. for 24 hr under the condition of 5% CO2, 95%-RH.
Ten (10) nM of the following compound A (although compound A is described here as a representative compound, the compound is not limited to compound A, if the compound exerts a PPAR r agonistic activity) and various concentrations of the test compound were added to culturing medium of the cells prepared in the Procedure 5.

Molecule	activity at 0.1 µM ([1]; 3T3-L1, 0.1 μM test substance) [%]	activity at 0.1 µM (Rat white adipocytes) [%]	further results
O=C(Nc1ncc(Br)s1)c1cc([N+](=O)[O-])ccc1Cl [Example 48, N-(5-Bromothiazol-2-yl)-(2-chloro-5-nitrophenyl)carboxamide]	70.3	131	
COC(=O)c1nccnc1NC(=O)c1cc([N+](=O)[O-])ccc1Cl [Example 60, N-(2-Metboxycarbonylpyrazin-3-yl)-(2-chloro-5-nitrophenyl)carboxamide]			Rate of Uptake (%) of [2-14C] acetic acid ([1]; 0.1 μM test substance): 68.8%; Rate of Differentiation (%) (Rat white adipocytes): 110.5%
Cc1ccnc(NC(=O)c2cc([N+](=O)[O-])ccc2Cl)c1[N+](=O)[O-] [Example 63, N-(4-Methyl-3-nitropyridin-2-yl)-(2-chloro-5-nitrophenyl)carboxamide]		120	activity at 0.1 µM ([1]; 0.1 μM test substance): 85.5%
O=C(Nc1nc2ccc(F)cc2s1)c1cc([N+](=O)[O-])ccc1Cl [Example 70, N-(6-Fluorobenzothiazol-2-yl)-(2-chloro-5-nitrophenyl)carboxamide]	70.2	122	
O=C(Nc1ncccc1[N+](=O)[O-])c1cc([N+](=O)[O-])ccc1Cl [Example 80, N-(3-Nitropyridin-2-yl)-(2-chloro-5-nitrophenyl)carboxamide]		118	activity at 0.1 µM ([1]; 0.1 μM test substance): 83.3%
O=C(Nc1ccc(N2CCOCC2)cc1)c1cc([N+](=O)[O-])ccc1Cl [Example 113, N-[4-(Morpholin-4-yl)phenyl]-(2-chloro-5-nitrophenyl)carboxamide]	84.6	111	
O=C(O)c1cccc(NC(=O)c2cc([N+](=O)[O-])ccc2Cl)c1 [Example 145, 3-(2-Chloro-5-nitrobenzoylamino)benzoic Acid]	87.6	141	
O=C(Nc1cccnc1)c1ccc(NC(=O)c2cc([N+](=O)[O-])ccc2Cl)cc1 [Example 148, N-[4-(Pyridin-3-ylaminocarbonyl)phenyl]-(2-chloro-5-nitrophenyl)carboxamide]	75.3	119	
O=C(Nc1ccc(C(=O)N2CCCC2)cc1)c1cc([N+](=O)[O-])ccc1Cl [Example 160, N-[4-(Pyrrolidinylcarbonyl)phenyl]-(2-chloro-5-nitrophenyl)carboxamide]		128	IC50 (human PPAR γ 2): 110 nM
CN1CCN(C(=O)c2ccc(NC(=O)c3cc([N+](=O)[O-])ccc3Cl)cc2)CC1 [Example 164, N-[4-(4-Methylpiperazin-1-ylcarbonyl)phenyl]-(2-chloro-5-nitrophenyl)carboxamide]		125	IC50 (human PPAR γ 2): 0.6 nM
N-(5-Bromo-3-nitropyridin-2-yl)-(−2-chloro-5-nitrophenyl-carboxamide [Example 84]			Rate of Uptake (%) of [2-14C] acetic acid ([1]; 0.1 μM test substance): 59.5%; Rate of Differentiation (%) (Rat white adipocytes): 151.4%
